For data set [1], the system named is A-375. Briefly: Cytotoxicity against human A-375 cells expressing high level of topoisomerase I/II measured after 72 hrs by MTT assay. It is filed as functional, cell-based. The conditions noted are these: A-375, 72 h. On the technique in general: Tetrazolium dyes change colour on reduction, which living cells bring about.
Data set [2] relates to SH-SY5Y. Briefly: Cytotoxicity against human SH-SY5Y cells expressing low level of topoisomerase I/II measured after 72 hrs by MTT assay. It is filed as functional, cell-based.
The subject of data set [3] is MCF7. Description: Cytotoxicity against human MCF7 cells expressing high level of topoisomerase I/II measured after 72 hrs by MTT assay. As to conditions: MCF7, 72 h. In kind it is functional, cell-based.
Data set [4] relates to HCT-116. Description: Cytotoxicity against human HCT-116 cells expressing high level of topoisomerase I/II measured after 72 hrs by MTT assay. It is filed as functional, cell-based. As to conditions: HCT-116, 72 h.
The test system of data set [5] is MDA-MB-231. Description: Cytotoxicity against human MDA-MB-231 cells expressing high level of topoisomerase I/II measured after 72 hrs by MTT assay. It is filed as functional, cell-based. The conditions noted are these: MDA-MB-231, 72 h.
Data set [6] concerns the target T1, DNA topoisomerase 1 (Homo sapiens) (UniProt P11387).
T1 sequence (whole entry): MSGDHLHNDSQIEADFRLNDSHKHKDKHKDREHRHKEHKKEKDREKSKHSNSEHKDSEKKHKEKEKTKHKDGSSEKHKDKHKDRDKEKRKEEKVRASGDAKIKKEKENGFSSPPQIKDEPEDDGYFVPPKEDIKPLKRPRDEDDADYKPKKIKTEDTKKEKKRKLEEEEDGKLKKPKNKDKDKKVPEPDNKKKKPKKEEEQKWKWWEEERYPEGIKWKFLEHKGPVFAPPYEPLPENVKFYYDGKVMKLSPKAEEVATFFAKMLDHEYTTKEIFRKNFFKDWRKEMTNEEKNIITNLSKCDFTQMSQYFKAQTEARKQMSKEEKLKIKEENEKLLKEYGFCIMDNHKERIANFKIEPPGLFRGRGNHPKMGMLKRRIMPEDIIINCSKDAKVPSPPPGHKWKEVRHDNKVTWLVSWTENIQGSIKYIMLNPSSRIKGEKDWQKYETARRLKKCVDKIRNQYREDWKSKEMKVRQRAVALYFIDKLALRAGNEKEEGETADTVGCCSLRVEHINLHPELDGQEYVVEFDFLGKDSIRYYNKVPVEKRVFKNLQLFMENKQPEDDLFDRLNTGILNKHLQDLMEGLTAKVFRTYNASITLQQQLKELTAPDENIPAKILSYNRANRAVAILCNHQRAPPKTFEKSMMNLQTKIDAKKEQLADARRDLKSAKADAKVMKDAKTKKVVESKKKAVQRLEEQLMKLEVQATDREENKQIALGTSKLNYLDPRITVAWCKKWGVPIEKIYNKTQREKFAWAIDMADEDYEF
Briefly: Inhibition of DNA topoisomerase I (unknown origin) relaxation activity at 100 uM incubated for 30 mins by chemiDoc system.

Data set [7] concerns the target DNA topoisomerase 2-alpha (Homo sapiens) (UniProt P11388). Description: Inhibition of human DNA topoisomerase II-alpha relaxation activity at 100 uM incubated for 30 mins by chemiDoc system.
The nature of data set [8]: Cytotoxicity against human L02 cells measured after 72 hrs by MTT assay. In kind it is toxicity, cell-based.
The nature of data set [9]: Cytotoxicity against human HEK293T cells measured after 72 hrs by MTT assay. It is filed as toxicity, cell-based, HEK-293T.
In data set [10] the target is DNA topoisomerase 2-alpha (Homo sapiens) (UniProt P11388). Briefly: Poison activity at human topoisomerase II-alpha assessed as stabilization of enzyme-DNA cleavage complex by measuring nicked DNA formation at 100 uM after 60 mins by agarose gel electrophoresis method.
Data set [11] deals with A549. Description: Cytotoxicity against human A549 cells expressing high level of topoisomerase I/II measured after 72 hrs by MTT assay. In kind it is functional, cell-based. As to conditions: A549, 72 h.
The nature of data set [12]: Half life in Kunming mouse plasma at 10 mg/kg, iv administered as single dose measured after 5 to 360 mins by HPLC analysis. In kind it is ADME, organism-based. The conditions noted are these: time 5-360 min.
In data set [13] the test system is A-375. Briefly: Induction of cell cycle arrest in human A-375 cells assessed as accumulation of cells at G1 phase at 80 nM incubated for 24 hrs by PI based flow cytometric analysis (RVB = 52.94%). It is filed as functional. Background: A flow cytometer gives signals particle by particle.
Data set [14] relates to A-375. Briefly: Induction of cell cycle arrest in human A-375 cells assessed as accumulation of cells at G2 phase at 80 nM incubated for 24 hrs by PI based flow cytometric analysis (RVB = 20.34%). In kind it is functional.
Data set [15] in a line: Toxicity in BALB/c nude mouse xenografted with human A-375 cells assessed as tolerability treated after 7 days of tumor implantation on right flank subcutaneously at 10 mg/kg, iv administered once per 2 days for 14 days measured once every two days. In kind it is organism-based. The conditions noted are these: in vivo, 336 h, time 14 day.
In data set [16] the test system is A-375. Briefly: In vivo antitumor activity against human A-375 cells xenografted in BALB/c nude mouse assessed as shrinkage of tumor tissue treated after 7 days of tumor implantation on right flank subcutaneously at 10 mg/kg, iv administered once per 2 days for 14 days measured once every two days. It is filed as functional, organism-based. The conditions noted are these: time 14.0 day.

For data set [17], the system named is A-375. Briefly: In vivo induction of apoptosis in human A-375 cells xenografted in BALB/c nude mouse assessed as increase in C-caspase-3 level treated after 7 days of tumor implantation on right flank subcutaneously at 10 mg/kg, iv administered once per 2 days for 14 days by measuring TUNEL positive cells under a light microscope. In kind it is functional, organism-based. The conditions noted are these: time 14.0 day. A general note: A xenograft is tissue or cells of one species grown in another, often human tumour cells in immunodeficient mice.

Data set [18] relates to HCT-116. Briefly: Antiproliferative activity against doxorubicin sensitive human HCT-116 cells measured after 72 hrs by MTT assay. It is filed as functional, cell-based. The conditions noted are these: HCT-116, 72 h.
Data set [19] in a line: AUC in Kunming mouse plasma at 10 mg/kg, iv administered as single dose measured after 5 to 360 mins by HPLC analysis. It is filed as ADME, organism-based. Set-up: time upper 360 min, time lower 5 min, dose 10 mg/kg, route iv.
In data set [20] the test system is A-375. Description: In vivo induction of apoptosis in human A-375 cells xenografted in BALB/c nude mouse assessed as […] treated after 7 days of tumor implantation on right flank subcutaneously at 10 mg/kg, iv administered once per 2 days for 14 days by measuring TUNEL positive cells under a light microscope. In kind it is functional, organism-based. The conditions noted are these: time 14.0 day.

Data set [21] can be described thus: Metabolic stability in mouse plasma upto 5 hrs by HPLC-UV analysis. In kind it is ADME, cell-free.
The subject of data set [22] is HCT-116. Briefly: Antiproliferative activity against doxorubicin resistant human HCT-116 cells measured after 72 hrs by MTT assay. It is filed as functional, cell-based. As to conditions: HCT-116, 72 h.
A short description of data set [23]: Cmax in Kunming mouse plasma at 10 mg/kg, iv administered as single dose measured after 5 to 360 mins by HPLC analysis. It is filed as ADME, organism-based. Set-up: dose 10 mg/kg, time upper 360 min, time lower 5 min, route iv.
Data set [24] relates to A-375. Description: In vivo antitumor activity against human A-375 cells xenografted in BALB/c nude mouse assessed as decrease in tumor weight treated after 7 days of tumor implantation on right flank subcutaneously at 10 mg/kg, iv administered once per 2 days for 14 days measured once every two days. In kind it is functional, organism-based. The conditions noted are these: time 14.0 day.

The nature of data set [25]: Selectivity index, ratio of IC50 for human L02 cells to IC50 for human A-375 cells. In kind it is toxicity. As to conditions: L02 cells and A-375 cells, read-out: Ratio IC50.
Data set [26] in a line: Microsomal stability in mouse liver microsomes assessed as half life measured at 2 ug/ml upto 60 mins in presence of NADPH generating system and UGT incubation system by phase II metabolic stability kit method. As to conditions: dose 2 µg/ml. It is filed as ADME, Microsome.
Data set [27] in a line: Toxicity in BALB/c nude mouse xenografted with human A-375 cells assessed as body weight loss treated after 7 days of tumor implantation on right flank subcutaneously at 10 mg/kg, iv administered once per 2 days for 14 days measured once every two days. In kind it is organism-based. As to conditions: in vivo, 336 h, time 14 day.
Data set [28] deals with A-375. Description: Induction of cell cycle arrest in human A-375 cells assessed as accumulation of cells at S phase at 80 nM incubated for 24 hrs by PI based flow cytometric analysis (RVB = 26.73%). In kind it is functional.
Data set [29] relates to A-375. Description: In vivo induction of apoptosis in human A-375 cells xenografted in BALB/c nude mouse treated after 7 days of tumor implantation on right flank subcutaneously at 10 mg/kg, iv administered once per 2 days for 14 days by measuring TUNEL positive cells under a light microscope. As to conditions: time 14.0 day. It is filed as functional, organism-based.
Data set [30] in a line: Volume of distribution in Kunming mouse plasma at 10 mg/kg, iv administered as single dose measured after 5 to 360 mins by HPLC analysis. In kind it is ADME, organism-based. The conditions noted are these: time 5-360 min.
Data set [31] is described as follows: Tmax in Kunming mouse plasma at 10 mg/kg, iv administered as single dose measured after 5 to 360 mins by HPLC analysis. It is filed as ADME, organism-based. As to conditions: time 5-360 min.
Data set [32] in a line: Clearance in Kunming mouse plasma at 10 mg/kg, iv administered as single dose measured after 5 to 360 mins by HPLC analysis. It is filed as ADME, organism-based. As to conditions: time 5-360 min.
Data set [33] in a line: Microsomal stability in mouse liver microsomes assessed as clearance measured at 2 ug/ml upto 60 mins in presence of NADPH generating system and UGT incubation system by phase II metabolic stability kit method. It is filed as ADME, Microsome. The conditions noted are these: dose 2 µg/ml, read-out: CLH.

Active and inactive are the calls of the source. The calls are words filed in the database; no cut-off is given here.

Sequence of DNA topoisomerase 2-alpha (Homo sapiens) (P11388 whole entry): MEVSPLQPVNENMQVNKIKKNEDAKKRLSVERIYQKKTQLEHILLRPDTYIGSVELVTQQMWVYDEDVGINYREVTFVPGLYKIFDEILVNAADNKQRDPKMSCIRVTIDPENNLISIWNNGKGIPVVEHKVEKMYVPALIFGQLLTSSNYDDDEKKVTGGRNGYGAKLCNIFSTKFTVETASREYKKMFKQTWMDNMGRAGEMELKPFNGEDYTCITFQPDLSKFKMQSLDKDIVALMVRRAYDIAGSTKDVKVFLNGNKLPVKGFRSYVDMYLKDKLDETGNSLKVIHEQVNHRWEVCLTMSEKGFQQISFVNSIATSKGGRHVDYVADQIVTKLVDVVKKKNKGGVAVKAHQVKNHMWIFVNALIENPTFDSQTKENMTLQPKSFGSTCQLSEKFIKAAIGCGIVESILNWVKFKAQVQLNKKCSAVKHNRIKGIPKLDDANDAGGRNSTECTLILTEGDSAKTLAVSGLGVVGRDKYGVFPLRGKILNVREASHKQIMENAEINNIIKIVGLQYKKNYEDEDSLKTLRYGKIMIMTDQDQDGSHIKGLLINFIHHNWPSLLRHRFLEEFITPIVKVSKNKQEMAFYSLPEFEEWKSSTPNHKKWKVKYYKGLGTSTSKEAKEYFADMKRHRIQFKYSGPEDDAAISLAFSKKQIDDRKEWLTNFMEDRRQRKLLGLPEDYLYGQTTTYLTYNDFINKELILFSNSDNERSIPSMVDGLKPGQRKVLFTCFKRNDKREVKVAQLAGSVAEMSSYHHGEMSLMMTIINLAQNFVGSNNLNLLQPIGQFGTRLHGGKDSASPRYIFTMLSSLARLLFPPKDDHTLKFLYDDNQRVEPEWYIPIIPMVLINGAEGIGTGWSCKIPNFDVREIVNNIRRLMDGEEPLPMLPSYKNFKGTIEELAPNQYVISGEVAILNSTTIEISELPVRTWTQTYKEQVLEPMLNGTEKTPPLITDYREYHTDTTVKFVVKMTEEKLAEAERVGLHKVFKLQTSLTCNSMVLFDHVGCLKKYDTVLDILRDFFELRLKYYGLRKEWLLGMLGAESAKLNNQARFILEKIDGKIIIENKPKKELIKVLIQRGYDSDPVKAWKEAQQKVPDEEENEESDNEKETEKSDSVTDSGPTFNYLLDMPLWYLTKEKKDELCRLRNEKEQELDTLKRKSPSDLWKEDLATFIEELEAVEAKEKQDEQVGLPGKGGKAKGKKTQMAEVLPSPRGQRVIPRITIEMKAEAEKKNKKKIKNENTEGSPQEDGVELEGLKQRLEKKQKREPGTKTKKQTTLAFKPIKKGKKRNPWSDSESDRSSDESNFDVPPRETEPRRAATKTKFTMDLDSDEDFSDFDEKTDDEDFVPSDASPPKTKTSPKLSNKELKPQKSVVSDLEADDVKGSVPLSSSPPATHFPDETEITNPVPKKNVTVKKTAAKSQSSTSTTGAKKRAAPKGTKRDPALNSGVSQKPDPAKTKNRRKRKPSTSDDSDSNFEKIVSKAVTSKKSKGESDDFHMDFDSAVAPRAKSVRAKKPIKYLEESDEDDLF

The term IC50 denotes the concentration that gives 50% inhibition. Low readings indicate greater potency in that assay, high ones weaker potency in that assay. On to `CN1CCN(CCCCn2c3c(c4ccccc42)C(=O)c2c[n+]([O-])c4ccccc4c2C3=O)CC1`, for which the IC50 in data set [1] was determined as 30 nM; in data set [2] it was 100 nM; in data set [3] it was 100 nM; in data set [4], 10 nM; in data set [5], 110 nM; in data set [11], 90 nM. Moreover, the inhibition result in data set [6] and in [7] was “Active” throughout. Moreover, the IC50 at 72 h in data set [8] came to 80 nM; in data set [9] it was 100 nM. Also, the outcome in data set [10] was Active.
Usually half-life stands for the time in which the quantity being followed falls by half. One may read the AUC as the area under the concentration-time curve, a measure of exposure. Low values mean low exposure, high ones high exposure. For orientation: Cmax means the highest concentration seen after dosing. What is called Vd is a proportionality between amount in the body and measured concentration, not a real space. Lower therefore signals confinement near the circulation. For orientation: Tmax means the time from dosing to the highest level. In general, clearance refers to a measure of how efficiently the substance is removed, as volume per time. Low values mean inefficient removal, high ones efficient removal. `COc1cc([C@@H]2c3cc4c(cc3[C@@H](O[C@@H]3O[C@@H]5CO[C@@H](C)O[C@H]5[C@H](O)[C@H]3O)[C@H]3COC(=O)[C@H]23)OCO4)cc(OC)c1O` [ETOPOSIDE] had a half-life in [12] of 45 min. For the same compound, the IC50 was found to be 280 nM in data set [1]; 890 nM in data set [2]; 790 nM in data set [3]; 370 nM in data set [18]; 3520 nM in data set [22]; 380 nM in data set [4]. In addition, the values for the IC50 in [5] and in [11] were 510 nM and 600 nM, respectively. In addition, the Activity is reported as 56.15% in data set [13]; 12.07% in [14]; “Toxic” in [15]; “Toxic” in [27]; 31.79% in [28]. Further, the result in data set [16], in [17], in data set [20], in data set [24] and in [29] was Active. The compound also showed an AUC in [19] of 6830 ng·h/mL. For the same compound, in data set [21], the Stability result is “Stable”. Moreover, in data set [23], the peak level (Cmax) was 17700 ng/mL. In addition, in [25], the selectivity ratio is less than 5. For the same compound, the half-life at 2 ug/ml in [26] was 21 min. For the same compound, the concentration for half-maximal inhibition (IC50) at 72 h in [8] stood at 1220 nM; in data set [9], 1390 nM. In addition, the Vd in data set [30] is 0.432 L/kg. Besides, the Tmax in [31] is 5 min. In data set [32], this compound registered a clearance of 7 mL/min/kg. Moreover, the microsomal CLint at 2 ug/ml in [33] amounted to 66 µL/min/mg.

The values are drawn from ChEMBL document CHEMBL5154929, “Optimization of the Natural Product Calothrixin A to Discover Novel Dual Topoisomerase I and II Inhibitors with Improved Anticancer Activity” (J Med Chem, 2022).
